Assay results from US8691757B2 (Bristol-Myers Squibb Company, priority 2011, dated 2014).

How the values were obtained:
[1] = test system: HCV genotype 1b (Con1) replicon in HUH-7 cells; assay: HCV replicon luciferase reporter assay, genotype 1b; format: cell-based; conditions: Hepatitis C virus, 72 h, HCV genotype 1b replicon, 3 days incubation, Renilla luciferase, range classes
How it was run: (§1)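 Stable HUH-7 replicon lines (1b Con1 with S1179I; 1a H77 with P1496L and S2204I) carrying Renilla luciferase were incubated 3 days at 37 °C with compound in 4% FCS, 0.5% DMSO. Luminescence was read after 2 h with 7.5 μM EnduRen, EC50 from four-parameter logistic fit; CC50 came from multiplexed Cell Titer-Blue (8 h).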

[2] = test system: HCV genotype 1a (H77 strain) replicon in HUH-7 cells; assay: HCV replicon luciferase reporter assay, genotype 1a; format: cell-based; conditions: Hepatitis C virus, 72 h, HCV genotype 1a replicon, 3 days incubation, Renilla luciferase, range classes
How it was run: as §1

Q: What does the source list for `COc1ccc2c(O[C@@H]3C[C@H]4C(=O)N[C@]5(C(=O)NS(=O)(=O)C6(C)CC6)C[C@H]5/C=C\[C@H](C)CCC[C@@H](C)[C@H](NC(=O)OC(C)(C)C(F)(F)F)C(=O)N4C3)ncc(OC)c2c1` [Compound 14, 1,1,1-trifluoro-2-methylpropan-2-yl (2R,6S,7R,11R,13aS,14aR,16aS,Z)-2-(4,6-dimethoxyisoquinolin-1-yloxy)-7,11-dimethyl-14a-(1-methylcyclopropylsulfonylcarbamoyl)-5,16-dioxo-1,2,3,5,6,7,8,9,10,11,13a,14,14a,15,16,16a-hexadecahydrocyclopropa[e]pyrrolo[1,2-a][1,4]diazacyclopentadecin-6-ylcarbamate]?
A: EC50 [1]: 1.01 to 2 nM; EC50 [2]: 2.01 to 5 nM

Q: What does the source list for `COc1cnc(O[C@@H]2C[C@H]3C(=O)N[C@]4(C(=O)NS(=O)(=O)C5CC5)C[C@H]4/C=C\[C@H](C)CCC[C@@H](C)[C@H](NC(=O)OC(C)(C)C(F)(F)F)C(=O)N3C2)c2ccccc12` [Compound 3, 1,1,1-trifluoro-2-methylpropan-2-yl (2R,6S,7R,11R,13aS,14aR,16aS,Z)-14a-(cyclopropylsulfonylcarbamoyl)-2-(4-methoxyisoquinolin-1-yloxy)-7,11-dimethyl-5,16-dioxo-1,2,3,5,6,7,8,9,10,11,13a,14,14a,15,16,16a-hexadecahydrocyclopropa[e]pyrrolo[1,2-a][1,4]diazacyclopentadecin-6-ylcarbamate]?
A: EC50 [1]: 0.2 to 1 nM; EC50 [2]: 0.2 to 1 nM

Q: For `COc1ccc2c(O[C@@H]3C[C@H]4C(=O)N[C@]5(C(=O)NS(=O)(=O)C6CC6)C[C@H]5/C=C\[C@H](C)CCC[C@@H](C)[C@H](NC(=O)OC(C)(C)C)C(=O)N4C3)ncc(OC)c2c1` [Compound 21, tert-butyl (2R,6S,7R,11R,13aS,14aR,16aS,Z)-14a-(cyclopropylsulfonylcarbamoyl)-2-(4,6-dimethoxyisoquinolin-1-yloxy)-7,11-dimethyl-5,16-dioxo-1,2,3,5,6,7,8,9,10,11,13a,14,14a,15,16,16a-hexadecahydrocyclopropa[e]pyrrolo[1,2-a][1,4]diazacyclopentadecin-6-ylcarbamate], which EC50 [1] is on record?
A: 0.2 to 1 nM

Q: What about the EC50 [2] of the same molecule?
A: 1.01 to 2 nM

Q: With `C[C@@H]1CCC[C@@H](C)/C=C\[C@@H]2C[C@@]2(C(=O)NS(=O)(=O)C2CC2)NC(=O)[C@@H]2C[C@@H](Oc3nccc4ccccc34)CN2C(=O)[C@H]1NC(=O)OC(C)(C)C(F)(F)F` [Compound 34, 1,1,1-trifluoro-2-methylpropan-2-yl (2R,6S,7R,11R,13aS,14aR,16aS,Z)-14a-(cyclopropylsulfonylcarbamoyl)-2-(isoquinolin-1-yloxy)-7,11-dimethyl-5,16-dioxo-1,2,3,5,6,7,8,9,10,11,13a,14,14a,15,16,16a-hexadecahydrocyclopropa[e]pyrrolo[1,2-a][1,4]diazacyclopentadecin-6-ylcarbamate] as the molecule, how does the EC50 [1] read?
A: 0.2 to 1 nM

Q: And the EC50 [2]?
A: 2.01 to 5 nM

Q: Which results are given for `COc1ccc2ncc(O[C@@H]3C[C@H]4C(=O)N[C@]5(C(=O)NS(=O)(=O)C6CC6)C[C@H]5/C=C\[C@H](C)CCC[C@@H](C)[C@H](NC(=O)OC(C)(C)C(F)(F)F)C(=O)N4C3)nc2c1` [Compound 30, 1,1,1-trifluoro-2-methylpropan-2-yl (2R,6S,7R,11R,13aS,14aR,16aS,Z)-14a-(cyclopropylsulfonylcarbamoyl)-2-(7-methoxyquinoxalin-2-yloxy)-7,11-dimethyl-5,16-dioxo-1,2,3,5,6,7,8,9,10,11,13a,14,14a,15,16,16a-hexadecahydrocyclopropa[e]pyrrolo[1,2-a][1,4]diazacyclopentadecin-6-ylcarbamate]?
A: EC50 [1]: 0.2 to 1 nM; EC50 [2]: 2.01 to 5 nM

Q: Which EC50 [1] does the source give for `COc1ccc2ncc(O[C@@H]3C[C@H]4C(=O)N[C@]5(C(=O)NS(=O)(=O)C6CC6)C[C@H]5/C=C\[C@@H](C)CCC[C@@H](C)[C@H](NC(=O)OC(C)(C)C)C(=O)N4C3)nc2c1` [Compound 29, tert-butyl (2R,6S,7R,11S,13aS,14aR,16aS,Z)-14a-(cyclopropylsulfonylcarbamoyl)-2-(7-methoxyquinoxalin-2-yloxy)-7,11-dimethyl-5,16-dioxo-1,2,3,5,6,7,8,9,10,11,13a,14,14a,15,16,16a-hexadecahydrocyclopropa[e]pyrrolo[1,2-a][1,4]diazacyclopentadecin-6-ylcarbamate] here?
A: 5.01 to 68 nM

Q: And the EC50 [2]?
A: 5.01 to 68 nM

Q: With `COc1cnc(O[C@@H]2C[C@H]3C(=O)N[C@]4(C(=O)NS(=O)(=O)C5CC5)C[C@H]4/C=C\[C@H](C)CCC[C@@H](C)[C@H](NC(=O)OC(C)(C)C)C(=O)N3C2)c2cc(F)ccc12` [Compound 23, tert-butyl (2R,6S,7R,11R,13aS,14aR,16aS,Z)-14a-(cyclopropylsulfonylcarbamoyl)-2-(7-fluoro-4-methoxyisoquinolin-1-yloxy)-7,11-dimethyl-5,16-dioxo-1,2,3,5,6,7,8,9,10,11,13a,14,14a,15,16,16a-hexadecahydrocyclopropa[e]pyrrolo[1,2-a][1,4]diazacyclopentadecin-6-ylcarbamate] as the molecule, how does the EC50 [1] read?
A: 5.01 to 68 nM

Q: And the EC50 [2]?
A: 5.01 to 68 nM

Q: For `COc1cnc(O[C@@H]2C[C@H]3C(=O)N[C@]4(C(=O)NS(=O)(=O)C5CC5)C[C@H]4/C=C\[C@@H](C)CCC[C@@H](C)[C@H](NC(=O)OC(C)(C)C(F)(F)F)C(=O)N3C2)c2cccc(Cl)c12` [Compound 8, 1,1,1-trifluoro-2-methylpropan-2-yl (2R,6S,7R,11S,13aS,14aR,16aS,Z)-2-(5-chloro-4-methoxyisoquinolin-1-yloxy)-14a-(cyclopropylsulfonylcarbamoyl)-7,11-dimethyl-5,16-dioxo-1,2,3,5,6,7,8,9,10,11,13a,14,14a,15,16,16a-hexadecahydrocyclopropa[e]pyrrolo[1,2-a][1,4]diazacyclopentadecin-6-ylcarbamate], which EC50 [1] is on record?
A: 1.01 to 2 nM

Q: What about the EC50 [2] of the same molecule?
A: 2.01 to 5 nM

Q: How did the EC50 [1] turn out when `CCOc1cnc(O[C@@H]2C[C@H]3C(=O)N[C@]4(C(=O)NS(=O)(=O)C5(C)CC5)C[C@H]4/C=C\[C@H](C)CCC[C@@H](C)[C@H](NC(=O)OC(C)(C)C(F)(F)F)C(=O)N3C2)c2ccccc12` [Compound 19, 1,1,1-trifluoro-2-methylpropan-2-yl (2R,6S,7R,11R,13aS,14aR,16aS,Z)-2-(4-ethoxyisoquinolin-1-yloxy)-7,11-dimethyl-14a-(1-methylcyclopropylsulfonylcarbamoyl)-5,16-dioxo-1,2,3,5,6,7,8,9,10,11,13a,14,14a,15,16,16a-hexadecahydrocyclopropa[e]pyrrolo[1,2-a][1,4]diazacyclopentadecin-6-ylcarbamate] was run?
A: 1.01 to 2 nM

Q: What about the EC50 [2] of the same molecule?
A: 2.01 to 5 nM

Q: What does the source list for `COc1ccc2nc(O[C@@H]3C[C@H]4C(=O)N[C@]5(C(=O)NS(=O)(=O)C6CC6)C[C@H]5/C=C\[C@H](C)CCC[C@@H](C)[C@H](NC(=O)OC(C)(C)C(F)(F)F)C(=O)N4C3)cnc2c1` [Compound 32, 1,1,1-trifluoro-2-methylpropan-2-yl (2R,6S,7R,11R,13aS,14aR,16aS,Z)-14a-(cyclopropylsulfonylcarbamoyl)-2-(6-methoxyquinoxalin-2-yloxy)-7,11-dimethyl-5,16-dioxo-1,2,3,5,6,7,8,9,10,11,13a,14,14a,15,16,16a-hexadecahydrocyclopropa[e]pyrrolo[1,2-a][1,4]diazacyclopentadecin-6-ylcarbamate]?
A: EC50 [1]: 5.01 to 68 nM; EC50 [2]: 5.01 to 68 nM

Q: Which results are given for `COc1ccc2c(O[C@@H]3C[C@H]4C(=O)N[C@]5(C(=O)NS(=O)(=O)C6(CF)CC6)C[C@H]5/C=C\[C@H](C)CCC[C@@H](C)[C@H](NC(=O)OC(C)(C)C(F)(F)F)C(=O)N4C3)ncc(OC)c2c1` [Compound 12]?
A: EC50 [1]: 1.01 to 2 nM; EC50 [2]: 2.01 to 5 nM

Q: Which results are given for `COc1cnc(O[C@@H]2C[C@H]3C(=O)N[C@]4(C(=O)NS(=O)(=O)C5CC5)C[C@H]4/C=C\[C@H](C)CCC[C@@H](C)[C@H](NC(=O)OC(C)(C)C(F)(F)F)C(=O)N3C2)c2cc(F)ccc12` [Compound 24, 1,1,1-trifluoro-2-methylpropan-2-yl (2R,6S,7R,11R,13aS,14aR,16aS,Z)-14a-(cyclopropylsulfonylcarbamoyl)-2-(7-fluoro-4-methoxyisoquinolin-1-yloxy)-7,11-dimethyl-5,16-dioxo-1,2,3,5,6,7,8,9,10,11,13a,14,14a,15,16,16a-hexadecahydrocyclopropa[e]pyrrolo[1,2-a][1,4]diazacyclopentadecin-6-ylcarbamate]?
A: EC50 [1]: 5.01 to 68 nM; EC50 [2]: 5.01 to 68 nM

Q: `COc1cnc(O[C@@H]2C[C@H]3C(=O)N[C@]4(C(=O)NS(=O)(=O)C5CC5)C[C@H]4/C=C\[C@H](C)CCC[C@@H](C)[C@H](NC(=O)OC(C)(C)C(F)(F)F)C(=O)N3C2)c2cccc(Cl)c12` [Compound 7, 1,1,1-trifluoro-2-methylpropan-2-yl (2R,6S,7R,11R,13aS,14aR,16aS,Z)-2-(5-chloro-4-methoxyisoquinolin-1-yloxy)-14a-(cyclopropylsulfonylcarbamoyl)-7,11-dimethyl-5,16-dioxo-1,2,3,5,6,7,8,9,10,11,13a,14,14a,15,16,16a-hexadecahydrocyclopropa[e]pyrrolo[1,2-a][1,4]diazacyclopentadecin-6-ylcarbamate] was tested. Which EC50 [1] did it give?
A: 0.2 to 1 nM

Q: And the EC50 [2]?
A: 1.01 to 2 nM
